Data as given in article PMC8222254, “Self-assembly of an anion receptor with metal-dependent kinase inhibition and potent in vitro anti-cancer properties” (Nature Communications, 2021).
“And” between values parts separate entries of the source, which are not always exact repeats. Equal values may be shown once.

Tests used:
Assay in all cases: Kinase inhibition screen, cell-free 33P ATP assay at 10 μM
Assay type in all cases: biochemical
[1] = molecular target: T1, 140 purified human kinases (Homo sapiens, UniProt O60285)
T1 sequence (O60285 1-661): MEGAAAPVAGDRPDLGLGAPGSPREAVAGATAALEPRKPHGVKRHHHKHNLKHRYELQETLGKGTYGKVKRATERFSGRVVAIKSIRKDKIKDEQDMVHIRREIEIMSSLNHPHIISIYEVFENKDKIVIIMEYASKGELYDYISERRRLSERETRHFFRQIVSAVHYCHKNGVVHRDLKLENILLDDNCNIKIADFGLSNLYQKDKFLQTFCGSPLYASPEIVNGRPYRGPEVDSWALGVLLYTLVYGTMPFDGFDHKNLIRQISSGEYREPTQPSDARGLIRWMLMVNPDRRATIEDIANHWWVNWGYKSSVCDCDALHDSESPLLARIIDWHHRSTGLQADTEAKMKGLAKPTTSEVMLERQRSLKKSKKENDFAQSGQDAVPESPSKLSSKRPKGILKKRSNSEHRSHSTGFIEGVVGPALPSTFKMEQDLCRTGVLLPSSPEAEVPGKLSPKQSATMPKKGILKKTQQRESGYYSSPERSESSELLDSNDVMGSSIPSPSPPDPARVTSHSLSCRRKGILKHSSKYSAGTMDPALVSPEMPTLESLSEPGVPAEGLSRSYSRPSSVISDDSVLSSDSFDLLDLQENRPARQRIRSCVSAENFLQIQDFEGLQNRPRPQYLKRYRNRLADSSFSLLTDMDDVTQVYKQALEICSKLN
In short: (§1)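 Each complex tested in duplicate at 10 μM; cell-free radiometric assay using ^33P ATP on purified enzymes. Hits mapped by HGNC symbol onto the kinome tree.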

[2] = molecular target: 140 purified human kinases (Homo sapiens, UniProt O95747); conditions: for % Activity Run 1 / % Activity Run 2: 10 µM
Sequence of 140 purified human kinases (Homo sapiens, UniProt O95747) (O95747 whole entry): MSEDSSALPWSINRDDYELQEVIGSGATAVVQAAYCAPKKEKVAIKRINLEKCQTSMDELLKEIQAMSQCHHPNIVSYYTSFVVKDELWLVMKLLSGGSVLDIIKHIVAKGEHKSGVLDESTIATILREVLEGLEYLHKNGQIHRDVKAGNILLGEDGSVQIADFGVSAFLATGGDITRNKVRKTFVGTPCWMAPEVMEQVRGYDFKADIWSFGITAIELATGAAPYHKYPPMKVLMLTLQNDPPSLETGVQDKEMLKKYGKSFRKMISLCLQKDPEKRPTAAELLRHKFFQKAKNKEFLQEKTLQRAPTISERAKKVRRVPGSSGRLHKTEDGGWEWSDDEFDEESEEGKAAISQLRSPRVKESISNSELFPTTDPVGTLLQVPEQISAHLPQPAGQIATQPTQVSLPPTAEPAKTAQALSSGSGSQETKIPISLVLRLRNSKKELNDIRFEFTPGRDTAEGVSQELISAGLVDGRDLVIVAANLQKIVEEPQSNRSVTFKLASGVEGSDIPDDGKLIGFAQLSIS
In short: as §1

[3] = molecular target: 140 purified human kinases (Homo sapiens, UniProt P11309)
Sequence of 140 purified human kinases (Homo sapiens, UniProt P11309) (P11309 whole entry): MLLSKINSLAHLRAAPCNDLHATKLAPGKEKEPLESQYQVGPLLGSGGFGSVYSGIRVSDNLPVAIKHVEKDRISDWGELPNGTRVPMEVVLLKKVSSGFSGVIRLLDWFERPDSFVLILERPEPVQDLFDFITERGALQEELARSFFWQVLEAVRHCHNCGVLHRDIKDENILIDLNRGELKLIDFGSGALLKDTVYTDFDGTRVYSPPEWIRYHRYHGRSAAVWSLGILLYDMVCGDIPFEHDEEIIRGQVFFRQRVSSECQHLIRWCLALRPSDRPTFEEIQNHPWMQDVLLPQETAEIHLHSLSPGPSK
In short: as §1

[4] = molecular target: 140 purified human kinases (Homo sapiens, UniProt P11362)
Sequence of 140 purified human kinases (Homo sapiens, UniProt P11362) (P11362 22-822): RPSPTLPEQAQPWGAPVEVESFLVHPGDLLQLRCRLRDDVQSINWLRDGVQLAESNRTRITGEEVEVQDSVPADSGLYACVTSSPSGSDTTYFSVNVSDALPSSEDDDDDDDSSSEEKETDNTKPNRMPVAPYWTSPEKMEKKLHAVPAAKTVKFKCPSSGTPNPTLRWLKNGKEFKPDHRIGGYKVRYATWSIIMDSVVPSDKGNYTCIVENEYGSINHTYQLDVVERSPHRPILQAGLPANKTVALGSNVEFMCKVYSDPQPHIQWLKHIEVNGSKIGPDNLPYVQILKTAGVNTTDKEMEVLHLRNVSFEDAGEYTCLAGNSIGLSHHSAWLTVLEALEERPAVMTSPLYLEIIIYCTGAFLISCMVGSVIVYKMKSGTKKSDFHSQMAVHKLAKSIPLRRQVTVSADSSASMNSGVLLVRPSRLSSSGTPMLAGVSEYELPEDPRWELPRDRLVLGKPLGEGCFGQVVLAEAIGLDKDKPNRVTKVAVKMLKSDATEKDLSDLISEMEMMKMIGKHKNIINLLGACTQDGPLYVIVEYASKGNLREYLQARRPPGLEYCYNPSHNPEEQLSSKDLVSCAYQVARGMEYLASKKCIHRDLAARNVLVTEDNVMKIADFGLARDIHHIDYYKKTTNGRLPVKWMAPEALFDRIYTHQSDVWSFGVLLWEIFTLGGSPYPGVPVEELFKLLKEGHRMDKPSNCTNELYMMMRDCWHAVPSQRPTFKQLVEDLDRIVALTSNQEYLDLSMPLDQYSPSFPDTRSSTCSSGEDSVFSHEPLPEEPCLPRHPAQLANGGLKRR
In short: as §1

[5] = molecular target: T2, 140 purified human kinases (Homo sapiens, UniProt Q13188)
T2 sequence (Q13188 1-491): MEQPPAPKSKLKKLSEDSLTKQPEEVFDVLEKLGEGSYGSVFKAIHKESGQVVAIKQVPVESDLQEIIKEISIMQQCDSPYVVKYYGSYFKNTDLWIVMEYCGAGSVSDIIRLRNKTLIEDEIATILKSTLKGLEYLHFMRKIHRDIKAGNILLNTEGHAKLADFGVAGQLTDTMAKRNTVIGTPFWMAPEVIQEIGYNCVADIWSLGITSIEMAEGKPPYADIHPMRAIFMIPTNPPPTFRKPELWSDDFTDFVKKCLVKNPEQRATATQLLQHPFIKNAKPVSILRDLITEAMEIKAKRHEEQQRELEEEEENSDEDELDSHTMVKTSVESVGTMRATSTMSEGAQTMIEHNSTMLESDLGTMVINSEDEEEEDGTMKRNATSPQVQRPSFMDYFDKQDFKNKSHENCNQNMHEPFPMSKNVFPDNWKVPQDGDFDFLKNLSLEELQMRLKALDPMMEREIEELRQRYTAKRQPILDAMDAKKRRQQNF
In short: as §1

[6] = molecular target: T3, 140 purified human kinases (Homo sapiens, UniProt Q9UKI8)
T3 sequence (Q9UKI8 1-766): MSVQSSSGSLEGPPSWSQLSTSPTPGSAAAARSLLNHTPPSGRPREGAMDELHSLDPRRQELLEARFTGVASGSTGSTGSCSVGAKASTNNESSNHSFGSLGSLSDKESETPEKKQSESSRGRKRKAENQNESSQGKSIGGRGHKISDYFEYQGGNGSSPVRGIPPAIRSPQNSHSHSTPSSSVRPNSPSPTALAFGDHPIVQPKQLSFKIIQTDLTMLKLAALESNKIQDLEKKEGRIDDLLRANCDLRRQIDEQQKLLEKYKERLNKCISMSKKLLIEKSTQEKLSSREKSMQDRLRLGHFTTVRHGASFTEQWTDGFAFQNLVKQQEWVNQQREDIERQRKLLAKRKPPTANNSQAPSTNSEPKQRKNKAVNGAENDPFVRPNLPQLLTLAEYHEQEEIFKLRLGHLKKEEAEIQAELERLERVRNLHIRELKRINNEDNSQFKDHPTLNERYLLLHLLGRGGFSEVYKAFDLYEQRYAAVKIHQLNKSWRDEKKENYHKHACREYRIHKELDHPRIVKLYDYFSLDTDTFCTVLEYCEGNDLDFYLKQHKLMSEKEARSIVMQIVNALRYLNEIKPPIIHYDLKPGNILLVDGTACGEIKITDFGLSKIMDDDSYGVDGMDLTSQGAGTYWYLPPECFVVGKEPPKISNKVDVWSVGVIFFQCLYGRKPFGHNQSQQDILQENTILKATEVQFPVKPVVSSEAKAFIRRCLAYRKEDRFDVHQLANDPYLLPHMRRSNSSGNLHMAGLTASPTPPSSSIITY
In short: as §1

Compound: [Cu+2].[Cu+2].[Cu+2].c1ccc(-c2csc(NCCN(CCNc3nc(-c4ccccn4)cs3)CCNc3nc(-c4ccccn4)cs3)n2)nc1.c1ccc(-c2csc(NCCN(CCNc3nc(-c4ccccn4)cs3)CCNc3nc(-c4ccccn4)cs3)n2)nc1 [[L2Cu3]6+]
- % Inhibition Run 1 ([1]; NUAK1): 93.9%
- % Inhibition Run 2 ([1]; NUAK1): 92.9%
- % Inhibition, Mean ([1]; NUAK1): 93%
- mean % activity ([1]; NUAK1): 6.6%
- % activity ([1]; NUAK1, Run 1): 6.1%
- % activity ([1]; NUAK1, Run 2): 7.1%
- % Activity inhibition Mean ([1]; NUAK1, 10 µM): 93.4%
- % Activity inhibition Run 1 ([1]; NUAK1, 10 µM): 93.9%
- % Activity inhibition Run 2 ([1]; NUAK1, 10 µM): 92.9%
- % Activity remaining Run 1 ([1]; NUAK1, 10 µM): 6.10%
- % Activity remaining Run 2 ([1]; NUAK1, 10 µM): 7.10%
- % Activation, Mean value ([2]; OSR1): 48%
- % Inhibition Run 1 ([2]; OSR1): -39.6%
- % Inhibition Run 2 ([2]; OSR1): -55.9%
- % Inhibition, Mean ([2]; OSR1): -48%
- mean % activity ([2]; OSR1): 148%
- % activity ([2]; OSR1, Run 1): 139.6%
- % activity ([2]; OSR1, Run 2): 155.9%
- % Activity Run 1 ([2]; OSR1): 139.60%
- % Activity Run 2 ([2]; OSR1): 155.90%
- % Inhibition Run 1 ([3]; PIM1): 53.7%
- % Inhibition Run 2 ([3]; PIM1): 42%
- % Inhibition, Mean ([3]; PIM1): 48%
- mean % activity ([3]; PIM1): 52%
- % activity ([3]; PIM1, Run 1): 46.3%
- % activity ([3]; PIM1, Run 2): 58%
- % Inhibition Run 1 ([4]; FGF-R1): 63.7%
- % Inhibition Run 2 ([4]; FGF-R1): 61.4%
- % Inhibition, Mean ([4]; FGF-R1): 63%
- mean % activity ([4]; FGF-R1): 37%
- % activity ([4]; FGF-R1, Run 1): 36.3%
- % activity ([4]; FGF-R1, Run 2): 38.6%
- % Inhibition Run 1 ([5]; MST2): 38.8%
- % Inhibition Run 2 ([5]; MST2): 41.9%
- % Inhibition, Mean ([5]; MST2): 40%
- mean % activity ([5]; MST2): 60%
- % activity ([5]; MST2, Run 1): 61.2%
- % activity ([5]; MST2, Run 2): 58.1%
- % Activation, Mean value ([6]; TLK1): 16%
- % Inhibition Run 1 ([6]; TLK1): -7.2%
- % Inhibition Run 2 ([6]; TLK1): -24.2%
- % Inhibition, Mean ([6]; TLK1): -16%
- mean % activity ([6]; TLK1): 116%
- % activity ([6]; TLK1, Run 1): 107.2%
- % activity ([6]; TLK1, Run 2): 124.2%
- % Activity Run 1 ([6]; TLK1, 10 µM): 107.20%
- % Activity Run 2 ([6]; TLK1, 10 µM): 124.20%

Compound: CC(=O)[O-].CC(=O)[O-].CC(=O)[O-].CC(=O)[O-].CC(=O)[O-].CC(=O)[O-].[Zn+2].[Zn+2].[Zn+2].c1ccc(-c2csc(NCCN(CCNc3nc(-c4ccccn4)cs3)CCNc3nc(-c4ccccn4)cs3)n2)nc1.c1ccc(-c2csc(NCCN(CCNc3nc(-c4ccccn4)cs3)CCNc3nc(-c4ccccn4)cs3)n2)nc1 [[L2Zn3]6+]
- % Inhibition, Mean ([1]; NUAK1): 61%
- % Inhibition, Run 1 / Run 2 ([1]; NUAK1): 64% and 59%
- mean % activity ([1]; NUAK1): 39%
- % activity ([1]; NUAK1, duplicate runs): 36% and 41%
- % Activation, Mean value ([2]; OSR1): 38%
- % Inhibition, Mean ([2]; OSR1): -38%
- % Inhibition, Run 1 / Run 2 ([2]; OSR1): -37% and -40%
- mean % activity ([2]; OSR1): 138%
- % Activity Run 1 ([2]; OSR1): 137.0%
- % Activity Run 2 ([2]; OSR1): 140.0%
- % activity ([2]; OSR1, duplicate runs): 137% and 140%
- % Inhibition, Mean ([3]; PIM1): 26%
- % Inhibition, Run 1 / Run 2 ([3]; PIM1): 28% and 23%
- mean % activity ([3]; PIM1): 74%
- % activity ([3]; PIM1, duplicate runs): 72% and 77%
- % Inhibition, Mean ([4]; FGF-R1): 82%
- % Inhibition, Run 1 / Run 2 ([4]; FGF-R1): 88% and 76%
- mean % activity ([4]; FGF-R1): 18%
- % Activity inhibition Mean ([4]; FGF-R1, 10 µM): 81.5%
- % Activity inhibition Run 1 ([4]; FGF-R1, 10 µM): 87%
- % Activity inhibition Run 2 ([4]; FGF-R1, 10 µM): 76%
- % Activity remaining Run 1 ([4]; FGF-R1, 10 µM): 13%
- % Activity remaining Run 2 ([4]; FGF-R1, 10 µM): 24%
- % activity ([4]; FGF-R1, duplicate runs): 13% and 24%
- % Inhibition, Mean ([5]; MST2): 10%
- % Inhibition, Run 1 / Run 2 ([5]; MST2): 14% and 6%
- mean % activity ([5]; MST2): 90%
- % activity ([5]; MST2, duplicate runs): 86% and 94%
- % Inhibition, Mean ([6]; TLK1): -0.3%
- mean % activity ([6]; TLK1): 100%
- % activity ([6]; TLK1, duplicate runs): 92% and 109%
